PubChem BioAssay (NCI)
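GI50 is the concentration that inhibits growth by half. The concentration for full growth arrest is given as TGI.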

Assays:
Test in all cases: DTP human tumour cell line panel, 384-well format
[1] = test system: 786-0 renal
[2] = test system: A498 renal
[3] = test system: A549 NSCLC
[4] = test system: ACHN renal
[5] = test system: BT-549 breast
[6] = test system: CAKI-1 renal
[7] = test system: CCRF-CEM leukemia
[8] = test system: COLO 205 colon
[9] = test system: DU-145 prostate
[10] = test system: EKVX NSCLC
[11] = test system: HCC-2998 colon
[12] = test system: HCT-15 colon
[13] = test system: HL-60(TB) leukemia
[14] = test system: HOP-62 NSCLC
[15] = test system: HOP-92 NSCLC
[16] = test system: HS 578T breast
[17] = test system: HT29 colon
[18] = test system: IGROV1 ovarian
[19] = test system: K-562 leukemia
[20] = test system: KM12 colon
[21] = test system: LOX IMVI melanoma
[22] = test system: M14 melanoma
[23] = test system: MALME-3M melanoma
[24] = test system: MCF7 breast
[25] = test system: MDA-MB-231 breast
[26] = test system: MDA-MB-435 melanoma
[27] = test system: MDA-MB-468 breast
[28] = test system: MOLT-4 leukemia
[29] = test system: NCI-H226 lung
[30] = test system: NCI-H23 lung
[31] = test system: NCI-H322M lung
[32] = test system: NCI-H460 NSCLC
[33] = test system: NCI-H522 lung
[34] = test system: NCI/ADR-RES ovarian
[35] = test system: OVCAR-3 ovarian
[36] = test system: OVCAR-4 ovarian
[37] = test system: OVCAR-5 ovarian
[38] = test system: OVCAR-8 ovarian
[39] = test system: PC-3 prostate
[40] = test system: RPMI-8226 leukemia
[41] = test system: RXF 393 renal
[42] = test system: SF-268 CNS
[43] = test system: SF-295 CNS
[44] = test system: SF-539 CNS
[45] = test system: SK-MEL-28 melanoma
[46] = test system: SK-MEL-5 melanoma
[47] = test system: SK-OV-3 ovarian
[48] = test system: SN12C renal
[49] = test system: SNB-19 CNS
[50] = test system: SNB-75 CNS
[51] = test system: SR leukemia
[52] = test system: SW-620 colon
[53] = test system: T-47D breast
[54] = test system: TK-10 renal
[55] = test system: UACC-257 melanoma
[56] = test system: UACC-62 melanoma
[57] = test system: UO-31 renal

With `Cn1ncc(-c2ccc3c(=O)[nH]nc(CN)c3c2)c1-c1c(F)cc2ccccc2c1C#N` as the compound, how does the GI50 [1] read?
The GI50 was 2.13 µM.

And the TGI [1]?
The TGI was 12.6 µM.

And the GI50 [2]?
The GI50 was 2.22 µM.

And the TGI [2]?
The TGI was 11 µM.

And the GI50 [3]?
Its GI50 is 2.8 µM.

And the TGI [3]?
Its TGI is 14 µM.

What about the GI50 [4] of the same compound?
The GI50 was 2.3 µM.

What about the TGI [4] of the same compound?
Its TGI is 11.2 µM.

What about the GI50 [5] of the same compound?
Its GI50 is 2.9 µM.

And the TGI [5]?
Its TGI is 11 µM.

What about the GI50 [6] of the same compound?
The GI50 was 3.23 µM.

What about the TGI [6] of the same compound?
The TGI was 13.9 µM.

What about the GI50 [7] of the same compound?
Its GI50 is 1.15 µM.

What about the TGI [7] of the same compound?
Its TGI is 3.04 µM.

What about the GI50 [8] of the same compound?
The GI50 was 2.9 µM.

What about the TGI [8] of the same compound?
The TGI was 15.3 µM.

And the GI50 [9]?
Its GI50 is 3.87 µM.

And the TGI [9]?
The TGI was 14.9 µM.

And the GI50 [10]?
Its GI50 is 5.14 µM.

And the TGI [10]?
The TGI was 18.7 µM.

And the GI50 [11]?
The GI50 was 3.08 µM.

What about the TGI [11] of the same compound?
The TGI was 14 µM.

And the GI50 [12]?
The GI50 was 2.28 µM.

What about the TGI [12] of the same compound?
Its TGI is 10.8 µM.

And the GI50 [13]?
The GI50 was 1.72 µM.

What about the TGI [13] of the same compound?
The TGI was 3.29 µM.

And the GI50 [14]?
The GI50 was 2.41 µM.

And the TGI [14]?
The TGI was 13 µM.

What about the GI50 [15] of the same compound?
Its GI50 is 1.18 µM.

What about the TGI [15] of the same compound?
The TGI was 6.91 µM.

What about the GI50 [16] of the same compound?
Its GI50 is 1.76 µM.

What about the TGI [16] of the same compound?
The TGI was 4.22 µM.

What about the GI50 [17] of the same compound?
The GI50 was 2.64 µM.

What about the TGI [17] of the same compound?
The TGI was 11.8 µM.

What about the GI50 [18] of the same compound?
Its GI50 is 3.42 µM.

And the TGI [18]?
Its TGI is 14 µM.

What about the GI50 [19] of the same compound?
The GI50 was 2.11 µM.

What about the TGI [19] of the same compound?
Its TGI is 8.63 µM.

And the GI50 [20]?
Its GI50 is 2.63 µM.

What about the TGI [20] of the same compound?
Its TGI is 11.3 µM.

What about the GI50 [21] of the same compound?
Its GI50 is 2.73 µM.

What about the TGI [21] of the same compound?
Its TGI is 11.1 µM.

What about the GI50 [22] of the same compound?
Its GI50 is 2.83 µM.

What about the TGI [22] of the same compound?
Its TGI is 8.76 µM.

What about the GI50 [23] of the same compound?
Its GI50 is 1.59 µM.

And the TGI [23]?
The TGI was 5.5 µM.

And the GI50 [24]?
The GI50 was 1.11 µM.

What about the TGI [24] of the same compound?
The TGI was 9.34 µM.

And the GI50 [25]?
Its GI50 is 2.1 µM.

What about the TGI [25] of the same compound?
Its TGI is 14.4 µM.

And the GI50 [26]?
Its GI50 is 2.08 µM.

What about the TGI [26] of the same compound?
The TGI was 4.61 µM.

What about the GI50 [27] of the same compound?
The GI50 was 1.31 µM.

What about the TGI [27] of the same compound?
Its TGI is 3.44 µM.

And the GI50 [28]?
Its GI50 is 0.0298 µM.

And the TGI [28]?
The TGI was 0.101 µM.

What about the GI50 [29] of the same compound?
Its GI50 is 3.4 µM.

What about the TGI [29] of the same compound?
The TGI was 15.1 µM.

And the GI50 [30]?
Its GI50 is 2.19 µM.

What about the TGI [30] of the same compound?
The TGI was 7.34 µM.

And the GI50 [31]?
Its GI50 is 4.74 µM.

What about the TGI [31] of the same compound?
Its TGI is 18.3 µM.

And the GI50 [32]?
Its GI50 is 1.27 µM.

What about the TGI [32] of the same compound?
Its TGI is 11.5 µM.

What about the GI50 [33] of the same compound?
Its GI50 is 2.37 µM.

And the TGI [33]?
The TGI was 6.27 µM.

And the GI50 [34]?
The GI50 was 5.21 µM.

And the TGI [34]?
Its TGI is 25.1 µM.

What about the GI50 [35] of the same compound?
Its GI50 is 1.77 µM.

What about the TGI [35] of the same compound?
The TGI was 5.25 µM.

What about the GI50 [36] of the same compound?
Its GI50 is 1.3 µM.

And the TGI [36]?
Its TGI is 7.5 µM.

What about the GI50 [37] of the same compound?
Its GI50 is 4.58 µM.

And the TGI [37]?
Its TGI is 17.1 µM.

And the GI50 [38]?
The GI50 was 2.59 µM.

And the TGI [38]?
Its TGI is 15.2 µM.

What about the GI50 [39] of the same compound?
The GI50 was 3.96 µM.

What about the TGI [39] of the same compound?
Its TGI is 14.7 µM.

What about the GI50 [40] of the same compound?
Its GI50 is 1.45 µM.

What about the TGI [40] of the same compound?
The TGI was 3.02 µM.

And the GI50 [41]?
Its GI50 is 1.69 µM.

And the TGI [41]?
Its TGI is 8.25 µM.

And the GI50 [42]?
Its GI50 is 2.4 µM.

What about the TGI [42] of the same compound?
The TGI was 12 µM.

And the GI50 [43]?
The GI50 was 4.96 µM.

And the TGI [43]?
Its TGI is 17.2 µM.

What about the GI50 [44] of the same compound?
Its GI50 is 1.84 µM.

And the TGI [44]?
The TGI was 5.38 µM.

And the GI50 [45]?
Its GI50 is 3.09 µM.

What about the TGI [45] of the same compound?
Its TGI is 12.6 µM.

What about the GI50 [46] of the same compound?
Its GI50 is 1.18 µM.

What about the TGI [46] of the same compound?
Its TGI is 3.27 µM.

And the GI50 [47]?
The GI50 was 4.57 µM.

And the TGI [47]?
The TGI was 16.6 µM.

What about the GI50 [48] of the same compound?
Its GI50 is 2.17 µM.

And the TGI [48]?
The TGI was 9.35 µM.

And the GI50 [49]?
The GI50 was 4.87 µM.

What about the TGI [49] of the same compound?
Its TGI is 18.8 µM.

And the GI50 [50]?
The GI50 was 2.55 µM.

What about the TGI [50] of the same compound?
The TGI was 10.3 µM.

And the GI50 [51]?
Its GI50 is 0.0374 µM.

And the TGI [51]?
Its TGI is 0.313 µM.

And the GI50 [52]?
The GI50 was 2.54 µM.

And the TGI [52]?
The TGI was 11.5 µM.

What about the GI50 [53] of the same compound?
Its GI50 is 1.08 µM.

What about the TGI [53] of the same compound?
The TGI was 6.19 µM.

What about the GI50 [54] of the same compound?
The GI50 was 8.98 µM.

And the TGI [54]?
Its TGI is 21.2 µM.

And the GI50 [55]?
The GI50 was 2.64 µM.

What about the TGI [55] of the same compound?
Its TGI is 8.43 µM.

And the GI50 [56]?
The GI50 was 2.97 µM.

What about the TGI [56] of the same compound?
The TGI was 14.2 µM.

What about the GI50 [57] of the same compound?
Its GI50 is 6.43 µM.

What about the TGI [57] of the same compound?
Its TGI is 19.6 µM.
